According to ChEMBL document CHEMBL4507268 (2021):

Tests used:
[1] = molecular target: Ephrin type-A receptor 4 (Homo sapiens) (UniProt P54764); conditions: Compound concentration 1000.0 nM
[2] = molecular target: T1, Ephrin type-A receptor 1 (Homo sapiens) (UniProt P21709); conditions: Compound concentration 1000.0 nM
T1 sequence (whole entry): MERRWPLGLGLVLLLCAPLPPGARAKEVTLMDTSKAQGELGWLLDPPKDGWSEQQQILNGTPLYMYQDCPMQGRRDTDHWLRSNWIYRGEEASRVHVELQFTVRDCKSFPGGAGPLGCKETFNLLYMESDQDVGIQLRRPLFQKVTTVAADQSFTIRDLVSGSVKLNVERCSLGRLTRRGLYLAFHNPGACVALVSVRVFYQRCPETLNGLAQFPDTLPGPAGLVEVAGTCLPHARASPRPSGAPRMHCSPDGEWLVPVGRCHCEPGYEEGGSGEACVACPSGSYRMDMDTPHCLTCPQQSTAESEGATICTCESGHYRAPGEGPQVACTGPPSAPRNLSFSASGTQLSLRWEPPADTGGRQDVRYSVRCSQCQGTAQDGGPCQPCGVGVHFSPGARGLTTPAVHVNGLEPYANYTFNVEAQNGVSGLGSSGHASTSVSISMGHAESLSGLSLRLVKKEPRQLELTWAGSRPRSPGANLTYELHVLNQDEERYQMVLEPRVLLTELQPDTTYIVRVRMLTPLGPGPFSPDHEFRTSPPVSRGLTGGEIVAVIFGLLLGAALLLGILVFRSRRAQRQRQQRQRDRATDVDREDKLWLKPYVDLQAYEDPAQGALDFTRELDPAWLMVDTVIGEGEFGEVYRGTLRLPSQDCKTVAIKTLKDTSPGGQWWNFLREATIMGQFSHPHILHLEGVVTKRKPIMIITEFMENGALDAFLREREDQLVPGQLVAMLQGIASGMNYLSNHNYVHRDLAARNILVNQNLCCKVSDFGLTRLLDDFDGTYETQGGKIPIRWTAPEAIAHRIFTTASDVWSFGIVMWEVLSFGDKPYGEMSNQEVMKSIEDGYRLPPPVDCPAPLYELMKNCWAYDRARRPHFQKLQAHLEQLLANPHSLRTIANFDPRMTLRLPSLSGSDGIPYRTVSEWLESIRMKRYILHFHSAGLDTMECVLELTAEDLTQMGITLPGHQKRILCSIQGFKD

[3] = molecular target: Casein kinase II subunit alpha' (Homo sapiens) (UniProt P19784); conditions: Compound concentration 1000.0 nM
[4] = molecular target: T2, Serine/threonine-protein kinase TAO3 (Homo sapiens) (UniProt Q9H2K8); conditions: Compound concentration 1000.0 nM
T2 sequence (whole entry): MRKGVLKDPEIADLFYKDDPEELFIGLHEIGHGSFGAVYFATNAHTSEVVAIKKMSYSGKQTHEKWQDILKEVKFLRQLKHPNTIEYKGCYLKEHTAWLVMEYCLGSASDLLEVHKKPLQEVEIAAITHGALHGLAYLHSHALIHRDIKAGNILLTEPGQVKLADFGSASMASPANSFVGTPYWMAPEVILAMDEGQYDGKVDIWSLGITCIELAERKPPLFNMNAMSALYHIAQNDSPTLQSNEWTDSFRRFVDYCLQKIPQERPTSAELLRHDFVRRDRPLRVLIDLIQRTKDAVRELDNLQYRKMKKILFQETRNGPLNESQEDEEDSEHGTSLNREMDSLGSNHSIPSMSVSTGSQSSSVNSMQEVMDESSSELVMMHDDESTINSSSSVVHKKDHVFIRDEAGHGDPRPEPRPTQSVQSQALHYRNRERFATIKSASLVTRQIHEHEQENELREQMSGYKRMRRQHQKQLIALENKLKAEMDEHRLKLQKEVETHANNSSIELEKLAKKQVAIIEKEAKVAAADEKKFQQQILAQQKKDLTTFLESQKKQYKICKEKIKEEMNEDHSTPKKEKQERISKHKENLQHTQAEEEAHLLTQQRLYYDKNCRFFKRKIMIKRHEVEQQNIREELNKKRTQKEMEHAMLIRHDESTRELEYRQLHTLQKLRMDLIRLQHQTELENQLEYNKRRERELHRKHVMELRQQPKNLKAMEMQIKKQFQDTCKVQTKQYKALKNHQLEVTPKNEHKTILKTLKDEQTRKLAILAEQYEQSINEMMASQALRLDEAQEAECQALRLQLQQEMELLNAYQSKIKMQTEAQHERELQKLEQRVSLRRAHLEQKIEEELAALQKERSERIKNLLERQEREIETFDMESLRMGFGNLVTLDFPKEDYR

[5] = molecular target: Mitogen-activated protein kinase kinase kinase 11 (Homo sapiens) (UniProt Q16584); conditions: Compound concentration 1000.0 nM
[6] = molecular target: Mitogen-activated protein kinase 10 (Homo sapiens) (UniProt P53779); conditions: Compound concentration 1000.0 nM
[7] = molecular target: Platelet-derived growth factor receptor beta (Homo sapiens) (UniProt P09619); conditions: Compound concentration 1000.0 nM
[8] = molecular target: T3, Serine/threonine-protein kinase Nek3 (Homo sapiens) (UniProt P51956); conditions: Compound concentration 1000.0 nM
T3 sequence (whole entry): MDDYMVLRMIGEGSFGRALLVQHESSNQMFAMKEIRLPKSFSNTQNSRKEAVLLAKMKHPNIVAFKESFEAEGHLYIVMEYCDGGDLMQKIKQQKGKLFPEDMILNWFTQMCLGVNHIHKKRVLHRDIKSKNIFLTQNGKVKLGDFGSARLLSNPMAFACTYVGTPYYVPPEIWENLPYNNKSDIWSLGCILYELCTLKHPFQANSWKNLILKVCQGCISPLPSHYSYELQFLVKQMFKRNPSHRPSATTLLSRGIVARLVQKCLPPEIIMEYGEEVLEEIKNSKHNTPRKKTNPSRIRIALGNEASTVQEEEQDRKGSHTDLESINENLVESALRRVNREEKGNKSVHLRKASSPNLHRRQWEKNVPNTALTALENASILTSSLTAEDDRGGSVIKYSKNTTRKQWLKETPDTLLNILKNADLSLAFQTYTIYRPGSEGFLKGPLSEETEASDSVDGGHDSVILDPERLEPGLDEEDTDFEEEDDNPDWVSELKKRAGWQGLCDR

[9] = molecular target: Serine/threonine-protein kinase RIO2 (Homo sapiens) (UniProt Q9BVS4); conditions: Compound concentration 1000.0 nM
[10] = molecular target: Insulin receptor-related protein (Homo sapiens) (UniProt P14616); conditions: Compound concentration 1000.0 nM
[11] = molecular target: 5-hydroxytryptamine receptor 5A (Homo sapiens) (UniProt P47898); conditions: Compound concentration 10.0 uM
[12] = molecular target: 5'-AMP-activated protein kinase catalytic subunit alpha-1 (Homo sapiens) (UniProt Q13131); conditions: Compound concentration 1000.0 nM
[13] = molecular target: Tyrosine-protein kinase Blk (Homo sapiens) (UniProt P51451); conditions: Compound concentration 1000.0 nM
Tyrosine-protein kinase Blk (Homo sapiens), sequence (P51451 2-505 limits assumed): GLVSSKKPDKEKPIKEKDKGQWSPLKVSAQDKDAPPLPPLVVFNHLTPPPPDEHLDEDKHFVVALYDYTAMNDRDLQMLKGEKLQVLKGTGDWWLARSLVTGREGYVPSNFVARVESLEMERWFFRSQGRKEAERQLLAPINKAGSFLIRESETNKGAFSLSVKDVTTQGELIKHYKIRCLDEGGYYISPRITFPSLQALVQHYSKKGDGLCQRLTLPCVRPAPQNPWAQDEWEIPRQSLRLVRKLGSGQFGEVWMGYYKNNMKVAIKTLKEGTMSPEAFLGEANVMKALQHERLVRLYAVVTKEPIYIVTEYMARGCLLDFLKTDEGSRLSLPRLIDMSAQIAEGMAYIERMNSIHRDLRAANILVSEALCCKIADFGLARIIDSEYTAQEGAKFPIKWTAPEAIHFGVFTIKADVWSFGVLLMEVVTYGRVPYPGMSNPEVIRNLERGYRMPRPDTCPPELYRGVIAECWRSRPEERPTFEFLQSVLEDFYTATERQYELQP

Serine/threonine-protein kinase RIO2 (Homo sapiens), sequence (Q9BVS4 whole entry, looked up): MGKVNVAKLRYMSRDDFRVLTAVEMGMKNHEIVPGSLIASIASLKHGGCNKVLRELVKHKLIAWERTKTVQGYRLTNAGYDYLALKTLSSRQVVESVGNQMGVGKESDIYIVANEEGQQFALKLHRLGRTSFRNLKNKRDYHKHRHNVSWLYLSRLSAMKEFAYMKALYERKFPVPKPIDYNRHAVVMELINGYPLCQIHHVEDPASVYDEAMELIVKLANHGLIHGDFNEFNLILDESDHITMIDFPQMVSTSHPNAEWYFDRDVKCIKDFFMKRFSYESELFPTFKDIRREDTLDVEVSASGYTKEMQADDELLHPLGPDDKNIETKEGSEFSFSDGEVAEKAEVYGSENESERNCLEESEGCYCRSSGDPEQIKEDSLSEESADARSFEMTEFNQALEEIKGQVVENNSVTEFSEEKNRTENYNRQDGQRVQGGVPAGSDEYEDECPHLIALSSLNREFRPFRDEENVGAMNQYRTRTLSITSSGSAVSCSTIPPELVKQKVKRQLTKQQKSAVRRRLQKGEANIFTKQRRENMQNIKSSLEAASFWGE
5'-AMP-activated protein kinase catalytic subunit alpha-1 (Homo sapiens), sequence (Q13131 whole entry, looked up): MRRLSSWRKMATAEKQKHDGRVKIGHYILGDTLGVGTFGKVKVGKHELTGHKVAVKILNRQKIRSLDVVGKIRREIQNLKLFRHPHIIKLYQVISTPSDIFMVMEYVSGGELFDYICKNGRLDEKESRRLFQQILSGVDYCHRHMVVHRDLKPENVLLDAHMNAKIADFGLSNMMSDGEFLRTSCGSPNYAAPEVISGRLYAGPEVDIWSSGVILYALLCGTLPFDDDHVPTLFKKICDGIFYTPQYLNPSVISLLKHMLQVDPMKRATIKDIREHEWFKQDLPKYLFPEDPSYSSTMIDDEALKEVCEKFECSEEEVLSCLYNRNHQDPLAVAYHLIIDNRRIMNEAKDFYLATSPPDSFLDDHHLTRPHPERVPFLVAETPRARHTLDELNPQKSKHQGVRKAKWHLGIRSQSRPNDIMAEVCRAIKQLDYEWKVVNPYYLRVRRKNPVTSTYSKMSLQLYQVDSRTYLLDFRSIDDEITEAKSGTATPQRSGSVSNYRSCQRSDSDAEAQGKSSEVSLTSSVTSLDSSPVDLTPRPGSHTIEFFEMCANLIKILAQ
5-hydroxytryptamine receptor 5A (Homo sapiens), sequence (P47898 whole entry): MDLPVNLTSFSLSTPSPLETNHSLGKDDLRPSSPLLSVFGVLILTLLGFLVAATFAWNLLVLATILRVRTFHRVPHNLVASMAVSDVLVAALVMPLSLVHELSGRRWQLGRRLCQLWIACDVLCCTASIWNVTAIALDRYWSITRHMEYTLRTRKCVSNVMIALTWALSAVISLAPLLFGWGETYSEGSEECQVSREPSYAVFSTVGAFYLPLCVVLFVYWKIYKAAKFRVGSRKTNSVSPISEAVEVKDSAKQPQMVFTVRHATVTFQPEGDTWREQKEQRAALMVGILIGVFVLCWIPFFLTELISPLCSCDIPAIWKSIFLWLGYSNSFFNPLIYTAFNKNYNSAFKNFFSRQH
Mitogen-activated protein kinase 10 (Homo sapiens), sequence (P53779 whole entry): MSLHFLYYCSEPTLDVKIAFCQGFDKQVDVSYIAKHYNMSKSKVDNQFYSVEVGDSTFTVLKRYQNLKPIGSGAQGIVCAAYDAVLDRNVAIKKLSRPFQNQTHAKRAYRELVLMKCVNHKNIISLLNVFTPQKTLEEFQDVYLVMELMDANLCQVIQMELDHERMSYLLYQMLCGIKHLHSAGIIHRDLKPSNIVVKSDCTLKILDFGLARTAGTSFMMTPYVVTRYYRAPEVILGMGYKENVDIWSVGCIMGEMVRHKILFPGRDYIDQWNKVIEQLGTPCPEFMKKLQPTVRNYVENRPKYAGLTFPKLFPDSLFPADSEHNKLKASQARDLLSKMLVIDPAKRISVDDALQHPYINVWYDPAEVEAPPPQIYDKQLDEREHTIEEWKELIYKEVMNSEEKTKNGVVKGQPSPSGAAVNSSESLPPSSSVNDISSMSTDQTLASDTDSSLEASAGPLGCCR
Ephrin type-A receptor 4 (Homo sapiens), sequence (P54764 whole entry): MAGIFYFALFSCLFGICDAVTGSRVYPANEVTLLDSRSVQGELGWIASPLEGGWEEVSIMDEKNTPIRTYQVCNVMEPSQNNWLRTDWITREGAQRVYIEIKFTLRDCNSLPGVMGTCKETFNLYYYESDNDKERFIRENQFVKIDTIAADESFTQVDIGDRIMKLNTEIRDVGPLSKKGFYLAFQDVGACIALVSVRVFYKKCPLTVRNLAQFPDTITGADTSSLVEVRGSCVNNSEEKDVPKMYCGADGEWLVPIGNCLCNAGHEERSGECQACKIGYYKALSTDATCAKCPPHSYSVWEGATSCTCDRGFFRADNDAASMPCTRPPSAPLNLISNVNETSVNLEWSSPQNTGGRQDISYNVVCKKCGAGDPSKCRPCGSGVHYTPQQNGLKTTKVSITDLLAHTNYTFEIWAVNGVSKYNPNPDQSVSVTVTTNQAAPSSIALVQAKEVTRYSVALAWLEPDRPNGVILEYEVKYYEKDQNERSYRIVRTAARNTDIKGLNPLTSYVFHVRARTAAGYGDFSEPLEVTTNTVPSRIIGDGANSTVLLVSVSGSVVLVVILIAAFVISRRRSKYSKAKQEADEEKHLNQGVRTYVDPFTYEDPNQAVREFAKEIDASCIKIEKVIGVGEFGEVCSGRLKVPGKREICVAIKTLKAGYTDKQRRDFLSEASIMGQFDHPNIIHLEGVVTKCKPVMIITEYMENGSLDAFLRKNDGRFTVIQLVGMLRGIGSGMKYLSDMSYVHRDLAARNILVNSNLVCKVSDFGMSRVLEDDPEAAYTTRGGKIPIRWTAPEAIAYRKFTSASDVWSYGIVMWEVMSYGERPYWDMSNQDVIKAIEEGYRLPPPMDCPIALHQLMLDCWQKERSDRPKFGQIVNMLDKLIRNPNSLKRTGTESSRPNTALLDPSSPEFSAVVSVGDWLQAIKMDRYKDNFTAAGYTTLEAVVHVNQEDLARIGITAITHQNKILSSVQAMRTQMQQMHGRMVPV
Platelet-derived growth factor receptor beta (Homo sapiens), sequence (P09619 whole entry): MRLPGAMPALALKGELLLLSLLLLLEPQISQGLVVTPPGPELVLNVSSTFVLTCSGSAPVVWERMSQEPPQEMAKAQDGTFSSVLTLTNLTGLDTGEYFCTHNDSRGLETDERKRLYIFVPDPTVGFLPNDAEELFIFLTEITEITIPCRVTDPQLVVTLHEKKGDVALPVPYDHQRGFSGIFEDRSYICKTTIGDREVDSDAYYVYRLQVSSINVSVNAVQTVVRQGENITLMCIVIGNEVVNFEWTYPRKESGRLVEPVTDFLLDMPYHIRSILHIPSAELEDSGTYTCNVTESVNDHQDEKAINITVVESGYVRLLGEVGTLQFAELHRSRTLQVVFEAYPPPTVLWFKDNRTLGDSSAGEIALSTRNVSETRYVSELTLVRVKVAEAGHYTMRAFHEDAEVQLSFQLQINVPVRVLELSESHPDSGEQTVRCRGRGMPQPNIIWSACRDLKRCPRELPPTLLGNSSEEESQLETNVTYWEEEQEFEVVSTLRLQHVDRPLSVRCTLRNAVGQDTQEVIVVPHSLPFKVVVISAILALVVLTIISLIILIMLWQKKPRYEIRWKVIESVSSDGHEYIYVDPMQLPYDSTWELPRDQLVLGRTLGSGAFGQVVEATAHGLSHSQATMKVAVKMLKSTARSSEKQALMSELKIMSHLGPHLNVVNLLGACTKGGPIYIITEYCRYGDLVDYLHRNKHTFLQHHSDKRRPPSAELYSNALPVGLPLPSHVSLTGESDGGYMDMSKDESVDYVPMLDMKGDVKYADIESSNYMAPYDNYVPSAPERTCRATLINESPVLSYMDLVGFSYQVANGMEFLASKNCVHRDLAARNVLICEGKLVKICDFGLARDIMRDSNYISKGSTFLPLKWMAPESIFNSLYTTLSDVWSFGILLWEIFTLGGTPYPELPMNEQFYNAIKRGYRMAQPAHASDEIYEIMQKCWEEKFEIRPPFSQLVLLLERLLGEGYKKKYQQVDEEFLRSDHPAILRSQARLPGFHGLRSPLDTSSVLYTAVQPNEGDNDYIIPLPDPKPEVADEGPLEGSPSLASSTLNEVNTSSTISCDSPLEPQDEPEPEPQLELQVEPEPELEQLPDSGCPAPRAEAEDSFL
Casein kinase II subunit alpha' (Homo sapiens), sequence (P19784 whole entry, looked up): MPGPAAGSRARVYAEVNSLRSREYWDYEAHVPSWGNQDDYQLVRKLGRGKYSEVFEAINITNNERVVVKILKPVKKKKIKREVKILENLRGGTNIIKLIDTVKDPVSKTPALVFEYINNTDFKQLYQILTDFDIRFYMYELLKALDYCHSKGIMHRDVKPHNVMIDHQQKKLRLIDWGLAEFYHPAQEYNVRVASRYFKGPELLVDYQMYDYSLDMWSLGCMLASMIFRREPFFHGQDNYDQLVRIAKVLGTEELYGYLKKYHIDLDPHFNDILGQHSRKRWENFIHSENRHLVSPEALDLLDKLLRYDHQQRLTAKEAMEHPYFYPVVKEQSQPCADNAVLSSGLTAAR

Cc1nc(C2CCN(C(=O)c3ccc(OC(F)(F)F)cc3N)CC2)c2ncc(N3CCN(C)CC3)cc2n1 [BAY-693]
inactive: residual activity [1] 100% | residual activity [2] 100% | residual activity [3] 85% | residual activity [4] 100% | residual activity [5] 100% | residual activity [6] 100% | residual activity [7] 95% | residual activity [8] 89% | residual activity [9] 100% | residual activity [10] 100% | inhibition [11] -3.74% | residual activity [12] 98% | residual activity [13] 97%

CN1CCN(c2cnc3c(C4CCN(C(=O)c5ccc(OC(F)(F)F)cc5N)CC4)ncnc3c2)CC1 [BAY-885]
inactive: residual activity [1] 100% | residual activity [2] 95% | residual activity [3] 93% | residual activity [4] 100% | residual activity [5] 100% | residual activity [6] 100% | residual activity [7] 95% | residual activity [8] 97% | residual activity [9] 100% | residual activity [10] 100% | inhibition [11] -1.47% | residual activity [12] 87% | residual activity [13] 91%
